Reference: patent US6436421B1, “Pesticide compositions” (priority 1997, dated 2002)
Like-named read-outs stand apart in the source and are kept apart here.

What was measured:
[1] = assay type: physicochemical
Protocol: One method to evaluate the efficacy of a pesticide adjuvant is to measure its affect on the ability of the pesticide composition to resist wash-off from a surface. One skilled in the art will recognize that a pesticide which remains on the surface of a plant will be expected to have increased efficacy.
A suspension of the pesticide formulation was prepared by adding a premix of water and surfactant, with and without the polymer additives, followed by vigorous shaking of the mixtures by hand. Pieces of Parafilm™M laboratory film, a very soft, flexible, and hydrophobic film, were taped to plastic petrie dishes. The suspensions were sprayed with an automated sprayer as the petrie dishes with attached film were moved at a standard rate below the sprayer. The spray residues were allowed to dry, and a second application of spray was applied. One set of films was exposed, at an inclination of 45 degrees, to approximately 25 mm of water applied by a spray bar (equipped with TX-4 cone-type spray nozzles) that moved back and forth over the samples for a period of about 1 hour. The exposed films were allowed to dry. Another set of films was not exposed to water.
Infra-red spectra of the films were obtained by an Attenuated Total Reflection (ATR) technique. The films were pressed against a Zinc Selenide crystal that had been cleaned previously with methanol. Spectra were recorded with a Spectratech Allied Systems Fourier Transform Infra-Red Spectrometer, and stored in a computer. Peaks associated with pesticide residue were identified by inspection and peak areas were calculated by computer (Pesticide Peak Area, “PA”). A corresponding area for a Parafilm™ peak as similar as possible in peak location and size (in the same spectrum) was calculated (Film Peak Area, “FA”). […] A measure of the pesticide on the surface “P” was derived from the following calculation:
A relative measure of the amount of pesticide remaining after the above exposure to water was then derived from the following calculation: [formula]
Although the intensity of spectral peaks recorded with the ATR technique are very dependent on details of contact with the film, by obtaining a ratio of the pesticide peak to the film peak in the same spectral recording, different spectra can be compared with details of contact being compensated for, since they will have similar effects on the intensity of the pesticide absorption and the film absorption. The intensity of the pesticide peak relative to the film peak will depend on the degree of coverage of the film by the pesticide. To maximize coverage, the spraying was conducted twice. Furthermore, a wetting agent (surfactant) was included in the premix to promote wetting of the film by the spray droplets. Since exposure to water can result in re-distribution of the pesticide as well as wash-off of the pesticide, the measure of the amount remaining is only relative.
In all cases, a measured amount of pesticide was mixed with 270 grams of deionized water and 30 grams of 0.5% Silwet L-77 surfactant. This premix was divided into 50 gram portions. One portion was sprayed without adding polymer. For mixes containing polymer, 66.6 milligrams powder polymer or 1.32 g of a 5% solids dilution of the emulsion polymer were added to the 50 grams of premix.
TX-2 nozzle 12 inches above laboratory film.
58 psi (delivers 150 cc/minute).
Laboratory film moves at 1 mile/hour.
Fan nozzle 14 inches above laboratory film.
29 psi (Spray 15 cc with two passes over laboratory film at a rate to give 25 gallons/acre).

[2] = system: Cercospora arachidicola (Early Leaf Spot); assay: Peanut field test of disease control with mancozeb fungicide; assay type: in vivo
Protocol: (§1) For grapes, single plant plots with three replicates/treatment were treated at seven day intervals, with a total of seven applications. Treatments were water-based spray mixtures of mancozeb with or without polymer additives added to the water shortly before spraying. The mixtures were applied with a backpack sprayer using carbon dioxide pressure atomization (45 psi) with a boom having three D3 (Cone) nozzles, at a rate of 640 liters/hectare. The treatments included a control with no fungicide applied, a full rate of mancozeb without additive (2.8 kg active ingredient/hectare), and a half rate of mancozeb (1.4 kg active ingredient/hectare) with or without additives. The polymer additives were used at ⅓ kg. of additive solids/kg. of active ingredient. The mancozeb formulation was a wettable powder with 75% active ingredient.
(§2) Assessments of percent infection (of grape downy mildew caused by Plasmopara viticola) of foliage were made 7 days after treatment # 7 (7DAT#7). These assessments are tabulated below. Data were analyzed by Duncan's multiple range test, using P=0.05.
Peanuts were evaluated the same as grapes except that the plots were 1 meter×5 meter (1 row), with 4 replicates per treatment, there were 9 applications, the boom had five D2 (C45) nozzles, the full rate of mancozeb was 1.6 kg active ingredient/hectare, the final assessment was 23 days after treatment #9 (23DAT#9), and the predominant disease at this time was Cercospora arachidicola (Early Leaf Spot).
(§3) Three different solid redispersible powders were evaluated; Powders I and II from the previous example and powder V, an all acrylic copolymer (Drycryl™DP-2904 redispersible powder, a cement modifier of the Rohm and Haas Company). Three different emulsion polymers were evaluated for comparison; Emulsion IV from the previous example; Emulsion VI, a poly(vinylacetate) emulsion (Rovace™ 117 emulsion from the Rohm and Haas Company, used as a general purpose adhesive component); and Emulsion VII, an acrylic emulsion polymer (Rhoplex™ 2438 emulsion from the Rohm and Haas Company, a component of elastomeric wall coatings).
(§4) In several of the evaluations, a surfactant was added to the spray mixture. When used, the surfactant was a solid powder of 90% dioctyl sodium sulfosuccinate and 10% sodium benzoate (Aerosol® OTB surfactant from Cytec Company).

[3] = system: grape downy mildew caused by Plasmopara viticola; assay: Grape field test of disease control with mancozeb fungicide; assay type: in vivo
Protocol: as §1, §2, §3, §4

Beet Armyworm larvae = assay: Beet Armyworm control on potted rice plants using tebufenozide; assay type: in vivo
Excerpt: Rice plants grown in pots were sprayed with one of two different versions of a 300 parts per million (based on active ingredient level) suspension of tebufenozide in water. In one version, the tebufenozide was supplied as Mimic® 10 W insecticide, a wettable powder, from Rohm and Haas Company. In the second version, approximately 30% by weight of the carrier in the Mimic® 10 W insecticide was replaced with Powder V from the above examples and approximately 10% by weight of the clay carrier was replaced by Aerosol®OTB surfactant. One portion of each of the sprayed plant samples was subjected to approximately 25 millimeters of water applied by a spray bar to simulate rain. The plants were cut and fed to Beet Armyworm larvae. Percent mortality was then evaluated.

beet armyworm = assay: Beet Armyworm control under field conditions on Chinese kale; assay type: in vivo; conditions: 300 g of tebufenozide per hectare, compared to untreated control plot
Protocol: Each of two different plots of Chinese kale grown under typical field conditions was treated with one of the two tebufenozide formulations described above at an application rate of 300 g of tebufenozide per hectare in 750 liters of water per hectare. The percent beet armyworm mortality in each plot was compared to an untreated control plot.

[4] = Half rate, Emulsion IV, no surfactant
[5] = Half rate, Emulsion VI, no surfactant
[6] = Half rate, Emulsion VI, with surfactant
[7] = Half rate, Emulsion VII, no surfactant
[8] = Half rate, Powder I, no surfactant
[9] = Half rate, Powder II, no surfactant
[10] = Half rate, Powder II, with surfactant
[11] = Half rate, Powder V, no surfactant

| Compound | % AI Retained After One Inch Spray-Bar Rain, M (mean) ([1]; No Polymer) [%] | % AI Retained After One Inch Spray-Bar Rain, M (mean) ([1]; with Emulsion IV) [%] | % AI Retained After One Inch Spray-Bar Rain, M (mean) ([1]; with Powder I) [%] | % AI Retained After One Inch Spray-Bar Rain, M (mean) ([1]; with Powder II) [%] | % AI Retained After One Inch Spray-Bar Rain, M (mean) ([1]; with Powder III) [%] | other results |
| --- | --- | --- | --- | --- | --- | --- |
| CNC(=O)Oc1cccc2ccccc12 [carbaryl] | 25 | 40 | 31 | 32 | 27 | – |
| N#Cc1c(Cl)c(Cl)c(Cl)c(C#N)c1Cl [chlorothalonil] | 2 | 12 | 16 | 54 | 4 | – |
| CCC(=O)Nc1ccc(Cl)c(Cl)c1 [propanil] | 9 | 18 | 38 | 27 | 21 | – |
| manganese ethylenebisdithiocarbamate [maneb] | 16 | 103 | 76 | 108 | 86 | – |
| CCOc1cc(Oc2ccc(C(F)(F)F)cc2Cl)ccc1[N+](=O)[O-] [oxyfluorfen] | 17 | 152 | 66 | 137 | 55 | – |
| CN(C)C(CSC(N)=O)CSC(N)=O [cartap] | 4 | 3 | 5 | 8 | 8 | – |
| [Cu+2].[OH-].[OH-] [copper hydroxide] | 20 | 11 | 22 | 80 | 21 | – |
| mancozeb | – | – | – | – | – | Infection on Peanut 23DAT#9 ([2]; Full rate (1.6 kg active ingredient/hectare), no polymer additive, no surfactant): 27.5 cd percent; Infection on Peanut 23DAT#9 [2, 4]: 25.0 de percent; Infection on Peanut 23DAT#9 [2, 5]: 22.5 ef percent; Infection on Peanut 23DAT#9 [2, 6]: 13.8 h percent; Infection on Peanut 23DAT#9 [2, 7]: 21.3 f percent; Infection on Peanut 23DAT#9 [2, 8]: 23.8 ef percent; Infection on Peanut 23DAT#9 [2, 9]: 32.5 c percent; Infection on Peanut 23DAT#9 [2, 10]: 17.5 g percent; Infection on Peanut 23DAT#9 [2, 11]: 22.5 ef percent; Infection on Peanut 23DAT#9 ([2]; Half rate, no polymer additive, no surfactant): 41.3 b percent; Infection on Grape 7DAT#7 ([3]; Full rate (2.8 kg active ingredient/hectare), no polymer additive, no surfactant): 41.7 cd percent; Infection on Grape 7DAT#7 ([3]; Half rate (1.4 kg active ingredient/hectare), no polymer additive, no surfactant): 63.3 b percent; Infection on Grape 7DAT#7 [3, 4]: 38.3 de percent; Infection on Grape 7DAT#7 [3, 5]: 43.3 cd percent; Infection on Grape 7DAT#7 [3, 6]: 31.7 fg percent; Infection on Grape 7DAT#7 [3, 7]: 41.7 cd percent; Infection on Grape 7DAT#7 [3, 8]: 46.7 c percent; Infection on Grape 7DAT#7 [3, 9]: 43.3 cd percent; Infection on Grape 7DAT#7 [3, 10]: 28.3 g percent; Infection on Grape 7DAT#7 [3, 11]: 46.7 c percent |
| CCCCC(C#N)(Cn1cncn1)c1ccc(Cl)cc1 (stereo not shown) [myclobutanil] | 13 | 74 | 56 | 77 | 44 | – |
| dinitro-(1-methylheptyl) phenyl crotonate [dinocap] | 3 | 40 | 49 | 47 | 19 | – |
| OC(c1ccc(Cl)cc1)(c1ccc(Cl)cc1)C(Cl)(Cl)Cl [dicofol] | 18 | 95 | 76 | 62 | 62 | – |
| CNC(=O)Oc1cccc2c1OC(C)(C)C2 [carbofuran] | 3 | 9 | 39 | 23 | 16 | – |
| N#CC(CCc1ccc(Cl)cc1)(Cn1cncn1)c1ccccc1 (stereo not shown) [fenbuconazole] | 9 | 83 | 63 | 82 | 48 | – |
| CCc1ccc(C(=O)NN(C(=O)c2cc(C)cc(C)c2)C(C)(C)C)cc1 [tebufenozide] | 40 | 59 | 71 | 67 | 40 | Beet Armyworm Mortality (%) (Beet Armyworm larvae; With Rain (approximately 25 millimeters of water by spray bar), 300 parts per million suspension): 28%; Beet Armyworm Mortality (%) (Beet Armyworm larvae; Without Rain, rice plants sprayed with 300 parts per million suspension): 90%; Beet Armyworm Control (%) (beet armyworm): 35% |
